# Entries after “also recorded” stand apart in the source; their conditions may differ.
# B1: Wnt5a: recombinant Wnt5a, secreted ligand of the Wnt/PCP pathway (protein, UniProt P41221 62-380, looked up)
# Protein Wnt-5a: IIGAQPLCSQLAGLSQGQKKLCHLYQDHMQYIGEGAKTGIKECQYQFRHRRWNCSTVDNTSVFGRVMQIGSRETAFTYAVSAAGVVNAMSRACREGELSTCGCSRAARPKDLPRDWLWGGCGDNIDYGYRFAKEFVDARERERIHAKGSYESARILMNLHNNEAGRRTVYNLADVACKCHGVSGSCSLKTCWLQLADFRKVGDALKEKYDSAAAMRLNSRGKLVQVNSRFNSPTTQDLVYIDPSPDYCVRNESTGSLGTQGRLCNKTSEGMDGCELMCCGRGYDQFKTVQTERCHCKFHWCCYVKCKKCTEIVDQFVCK
# System: CLL cells
# Test: Transwell migration assay of CLL cells in chemokine gradient
# Format: cell-based, human
# Text: 2006 Nov. 1; 108(9):3143-51; Richardson S J, Matthews C, Catherwood M A, Alexander H D, Carey B S, Farrugia J, Gardiner A, Mould S, Oscier D, Copplestone J A, Prentice A G: ZAP-70 expression is associated with enhanced ability to respond to migratory and survival signals in B-cell chronic lymphocytic leukemia (CLL). Blood. 2006 May 1; 107(9):3584-92). […] CK1ε is the key component of the Wnt/PCP pathway and its quantity in the patients suffering from CLL is increased. As we show in FIG. 5B, the inhibition of CK1ε blocks the effects of Wnt5a on cell migration in the chemokine gradient. […] The extent of the migration of CLL cells in chemokine gradient after Wnt5a stimulation may be determined by the following procedure and used for the determination of the migration capacity of CLL cells that correlates closely with the infiltration of lymphatic organs and the agressiveness of the disease (Till K J, Lin K, Zuzel M., Cawley J C. The chemokine receptor CCR7 and a4 integrin are important for migration of chronic lymphocytic leukemia cells into lymph nodes. Blood. 2002 99: 2977-2984).
# CLL cells were isolated by the identical procedure as in Example 6. After isolation the cells were transferred to tissue culture and subjected to Transwell assay. 96 well plates were used for the experiments (Corning, HTS Transwell®-96 Permeable Support with 5.0 μm Pore Polycarbonate Membrane). These plates consist of a bottom part including the wells and a top part that includes the inserts, the bottom of which is formed by the membrane of a defined size of pores. Each sample was measured in triplicate. The wells in the bottom part of the plate always included 0.235 ml of the medium (RPMI 1640, 0.1% FBS, 1% Penicillin Streptomycin, 1% L-glutamine) and further the required concentration of the chemokine or solvent (0.1% BSA in PBS). […] After the cultivation the inserts were removed from the transwell plate, trypsin was added to each well (100 μl) and after 5 minutes of its activity the number of the cells that migrated through the membrane were counted in each well. […]
molecule,measurement,setting,value
CXCL12: chemokine CXCL12,migration of CLL cells,"substance itself (alone), 20 hours, recombinant Wnt5a 200 ng/ml",influences positively the migration of CLL cells
"NC(=O)c1ccc(-c2nc(-c3ccc4c(c3)OCCO4)c(-c3ccccn3)[nH]2)cc1 [D4476, reference compound]",effect of CK1 inhibition on Wnt5a-induced migration of CLL cells in the chemokine gradient,"CK1 inhibitor D4476 100 uM, with Wnt5a and chemokine",blocks migration
B1,migration of CLL cells in the presence of the chemokine CXCL12,"combination of CXCL12 and recombinant Wnt5a (200 ng/ml), 20 hours",positively affect the migration of CLL cells; also recorded: significantly increased the migration of CLL

# Source: patent US9057106B2, “Method of determination of diagnosis and prognosis in patients with B-cell chronic lymphocytic leukemia and oligonucleotides for use in this method” (MASARYKOVA UNIVERZITA, priority 2009, dated 2015)
